Experimental data: the NIST ThermoML archive (doi:10.1021/je100256w)

Experiment: cn = amount concentration of the nth substance listed, in mol/dm3
Conditions: 101 kPa, Liquid, Dip Cell

O=C([O-])c1ccccc1.[Na+] [sodium benzoate] + O
electrical conductivity [S/m]
Conditions | 298 K | 303 K | 308 K | 313 K
c1 = 1.98e-05 | 1.95e-05 | 1.613e-05 | 1.97e-05 | 2.22e-05
c1 = 3.92e-05 | 3.33e-05 | 3.53e-05 | 3.66e-05 | 4.21e-05
c1 = 5.82e-05 | 4.76e-05 | 5.11e-05 | 5.48e-05 | 5.98e-05
c1 = 7.69e-05 | 5.86e-05 | 6.55e-05 | 6.76e-05 | 7.77e-05
c1 = 9.52e-05 | 7.22e-05 | 7.97e-05 | 8.72e-05 | 9.3e-05
c1 = 0.0001221 | 8.72e-05 | 9.91e-05 | 0.000107 | 0.000116
c1 = 0.0001567 | 0.00011 | 0.000121 | 0.000133 | 0.000143
c1 = 0.00019 | 0.0001285 | 0.00013 | 0.000157 | 0.000167
c1 = 0.0002222 | 0.000145 | 0.000161 | 0.000178 | 0.00019
c1 = 0.0002533 | 0.000161 | 0.000175 | 0.000197 | 0.0002038
c1 = 0.0002906 | 0.00018 | 0.000199 | 0.000206 | 0.000221
c1 = 0.0003264 | 0.000198 | 0.000203 | 0.000224 | 0.000243
c1 = 0.0003607 | 0.000199 | 0.000217 | 0.000243 | 0.000262
c1 = 0.0004 | 0.000216 | 0.000235 | 0.000261 | 0.000285
c1 = 0.0004375 | 0.000231 | 0.000254 | 0.000284 | 0.000307
c1 = 0.0004791 | 0.000245 | 0.000271 | 0.000304 | 0.000332
c1 = 0.000524 | 0.000266 | 0.000291 | 0.000326 | 0.000354
c1 = 0.0005663 | 0.000293 | 0.000307 | 0.000338 | 0.000375
c1 = 0.0006063 | 0.000297 | 0.000324 | 0.000362 | 0.00039
c1 = 0.0006532 | 0.000314 | 0.000341 | 0.000381 | 0.000412
c1 = 0.0007055 | 0.000326 | 0.00036 | 0.000393 | 0.000439
c1 = 0.0007616 | 0.000349 | 0.000379 | 0.000428 | 0.000462
c1 = 0.0008131 | 0.000366 | 0.000398 | 0.000446 | 0.000486
c1 = 0.0008669 | 0.000381 | 0.000414 | 0.000463 | 0.000507
c1 = 0.0009218 | 0.000398 | 0.000432 | 0.000483 | 0.000526
c1 = 0.000977 | 0.000412 | 0.000443 | 0.000493 | 0.000547
c1 = 0.001027 | 0.000431 | 0.000456 | 0.000514 | 0.000563

Cc1ccc(S(=O)(=O)[O-])cc1.[Na+] [sodium p-toluenesulfonate] + O
electrical conductivity [S/m]
Conditions | 298 K | 303 K | 308 K | 313 K
c1 = 1.98e-05 | 1.97e-05 | 1.898e-05 | 2.03e-05 | 2.26e-05
c1 = 3.92e-05 | 3.417e-05 | 3.49e-05 | 3.87e-05 | 4.25e-05
c1 = 5.83e-05 | 4.83e-05 | 5.03e-05 | 5.5e-05 | 6.1e-05
c1 = 7.69e-05 | 6.1e-05 | 6.43e-05 | 7.18e-05 | 7.97e-05
c1 = 9.52e-05 | 7.34e-05 | 7.77e-05 | 8.74e-05 | 9.66e-05
c1 = 0.0001132 | 8.47e-05 | 9.1e-05 | 0.000101 | 0.000113
c1 = 0.0001308 | 9.61e-05 | 0.000104 | 0.000115 | 0.000128
c1 = 0.0001481 | 0.000107 | 0.000117 | 0.000127 | 0.000142
c1 = 0.0001651 | 0.000117 | 0.000129 | 0.00014 | 0.000156
c1 = 0.0001818 | 0.000127 | 0.000139 | 0.000152 | 0.000169
c1 = 0.0001982 | 0.000137 | 0.000149 | 0.000164 | 0.000181
c1 = 0.0002143 | 0.000147 | 0.000161 | 0.000175 | 0.000194
c1 = 0.0002456 | 0.000164 | 0.000179 | 0.000196 | 0.000203
c1 = 0.0002609 | 0.00017 | 0.000188 | 0.000192 | 0.000214
c1 = 0.0002759 | 0.00018 | 0.000196 | 0.000201 | 0.000224
c1 = 0.0002906 | 0.0001884 | 0.000192 | 0.000209 | 0.000234
c1 = 0.0003051 | 0.0001964 | 0.0002 | 0.000219 | 0.000242
c1 = 0.0003193 | 0.000203 | 0.000208 | 0.000228 | 0.000253
c1 = 0.0003333 | 0.000196 | 0.000215 | 0.000236 | 0.00026
c1 = 0.0003471 | 0.000201 | 0.000222 | 0.000243 | 0.000269
c1 = 0.0003673 | 0.000206 | 0.000232 | 0.000254 | 0.000281
c1 = 0.0003871 | 0.000219 | 0.000241 | 0.000267 | 0.000293
c1 = 0.0004064 | 0.000228 | 0.000251 | 0.000276 | 0.000305
c1 = 0.0004252 | 0.000236 | 0.000259 | 0.000286 | 0.000315
c1 = 0.0004436 | 0.000242 | 0.000267 | 0.000295 | 0.000326
c1 = 0.0004615 | 0.000249 | 0.000274 | 0.000304 | 0.000336
c1 = 0.0004791 | 0.000258 | 0.000283 | 0.000313 | 0.000342
c1 = 0.0004962 | 0.000265 | 0.000293 | 0.000321 | 0.00035
c1 = 0.000513 | 0.000271 | 0.0003 | 0.00033 | 0.000359

CCCCCCCCCCCCCCCC[N+](C)(C)CCCC[N+](C)(C)CCCCCCCCCCCCCCCC.[Br-].[Br-] + O
electrical conductivity [S/m]
Conditions | 298 K | 303 K | 308 K | 313 K
c1 = 3.3e-06 | 6.6e-05 | 6.6e-05 | 6.7e-05 | 6.8e-05
c1 = 6.6e-06 | 0.000121 | 0.000134 | 0.00015 | 0.00016
c1 = 9.9e-06 | 0.000187 | 0.000196 | 0.000207 | 0.000227
c1 = 1.32e-05 | 0.000256 | 0.000274 | 0.00029 | 0.000301
c1 = 1.64e-05 | 0.000326 | 0.000336 | 0.000346 | 0.000372
c1 = 1.96e-05 | 0.000397 | 0.000407 | 0.000429 | 0.000449
c1 = 2.28e-05 | 0.000463 | 0.000486 | 0.000507 | 0.000527
c1 = 2.6e-05 | 0.000539 | 0.000539 | 0.000559 | 0.000575
c1 = 2.91e-05 | 0.000615 | 0.000626 | 0.000642 | 0.000666
c1 = 3.23e-05 | 0.00067 | 0.000679 | 0.000695 | 0.000715
c1 = 3.54e-05 | 0.000736 | 0.000746 | 0.000766 | 0.000787
c1 = 3.85e-05 | 0.000789 | 0.000799 | 0.000799 | 0.000851
c1 = 4.15e-05 | 0.000856 | 0.000866 | 0.000889 | 0.000901
c1 = 4.46e-05 | 0.000916 | 0.000926 | 0.000946 | 0.000966
c1 = 4.76e-05 | 0.000962 | 0.000985 | 0.001 | 0.00103
c1 = 5.06e-05 | 0.001 | 0.00102 | 0.00105 | 0.00108
c1 = 5.36e-05 | 0.00105 | 0.00106 | 0.00108 | 0.0011
c1 = 5.66e-05 | 0.0011 | 0.00112 | 0.00113 | 0.00115
c1 = 5.96e-05 | 0.00116 | 0.00118 | 0.0012 | 0.00122
c1 = 6.25e-05 | 0.00121 | 0.00123 | 0.00125 | 0.00127
c1 = 6.54e-05 | 0.00126 | 0.00126 | 0.00128 | 0.00133
c1 = 6.83e-05 | 0.0013 | 0.00131 | 0.00133 | 0.00137
c1 = 7.12e-05 | 0.00134 | 0.00137 | 0.00138 | 0.0014
c1 = 7.41e-05 | 0.0014 | – | – | –
